In patent US9273058B2 (BRISTOL-MYERS SQUIBB COMPANY, priority 2013, dated 2016) one finds IC50 data, which are given here for 26 compounds.

SMILES strings stand for the structures. Like-named read-outs stand apart in the source and are kept apart here.

One assay deals with CK1ε (Homo sapiens, UniProt P49674). Description: CK1ε kinase assay (Caliper LabChip electrophoretic separation of fluoresceinated peptide substrate and product). The format is biochemical. The note with it: 200 pM CK1ε, 50 μM ATP, 1.5 μM peptide, 22 hours at room temperature. An outline of the steps:
(§1)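 Compounds, taken from 10 mM DMSO stocks, are titrated at eleven concentrations. Kinase reactions proceed for 22 hours at room temperature and are quenched with EDTA. Substrate and product are resolved electrophoretically, and IC50 values are fitted by non-linear regression.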

Another assay addresses CK1δ (Homo sapiens, UniProt P48730). Description: CK1δ kinase assay (Caliper LabChip electrophoretic separation of fluoresceinated peptide substrate and product). Type of assay: biochemical. The note with it: 200 pM CK1δ, 50 μM ATP, 1.5 μM peptide, 22 hours at room temperature. An outline of the steps: as §1

Sequence of CK1ε (P49674 whole entry): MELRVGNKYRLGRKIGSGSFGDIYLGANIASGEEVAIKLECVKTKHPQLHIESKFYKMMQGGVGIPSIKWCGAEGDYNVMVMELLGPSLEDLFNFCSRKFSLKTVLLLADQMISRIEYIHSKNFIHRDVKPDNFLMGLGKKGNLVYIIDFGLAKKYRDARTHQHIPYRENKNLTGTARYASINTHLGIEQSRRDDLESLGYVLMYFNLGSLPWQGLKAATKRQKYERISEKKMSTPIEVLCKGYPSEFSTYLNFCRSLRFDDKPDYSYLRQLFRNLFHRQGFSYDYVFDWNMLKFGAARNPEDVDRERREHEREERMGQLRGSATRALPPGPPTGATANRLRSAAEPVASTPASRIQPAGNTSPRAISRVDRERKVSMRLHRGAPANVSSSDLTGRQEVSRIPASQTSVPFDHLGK
Sequence of CK1δ (P48730 whole entry): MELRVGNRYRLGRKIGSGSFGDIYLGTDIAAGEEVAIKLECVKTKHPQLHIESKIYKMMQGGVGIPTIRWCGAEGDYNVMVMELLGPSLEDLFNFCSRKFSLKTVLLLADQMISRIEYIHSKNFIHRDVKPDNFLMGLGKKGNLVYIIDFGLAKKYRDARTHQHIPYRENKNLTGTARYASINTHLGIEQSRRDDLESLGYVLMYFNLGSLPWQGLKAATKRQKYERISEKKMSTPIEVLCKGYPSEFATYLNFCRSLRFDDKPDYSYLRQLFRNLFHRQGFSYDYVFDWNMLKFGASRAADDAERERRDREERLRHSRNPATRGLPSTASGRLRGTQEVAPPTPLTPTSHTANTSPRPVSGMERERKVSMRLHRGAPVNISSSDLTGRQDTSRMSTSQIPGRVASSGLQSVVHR

On to `CC(C)(C)NC(=O)N1CCn2nc(-c3cc(F)cc(C(F)(F)F)c3)c(C(N)=O)c2C1` [Compound 155, N^5-(tert-Butyl)-2-(3-fluoro-5-(trifluoromethyl)phenyl)-6,7-dihydropyrazolo[1,5-a] pyrazine-3,5(4H)-dicarboxamide], for which the IC50 at CK1ε (read-out: CK1ε IC50 range) and at CK1δ (read-out: CK1δ IC50 range) was 100 to 2000 nM in each case.

With `N#Cc1ccc(NC(=O)N2CCn3nc(-c4cccc(Cl)c4)c(C(N)=O)c3C2)cc1C(F)(F)F` [Compound 159, 2-(3-Chlorophenyl)-N^5-(4-cyano-3-(trifluoromethyl)phenyl)-6,7-dihydropyrazolo [1,5-a]pyrazine-3,5(4H)-dicarboxamide], the IC50 at CK1ε (read-out: CK1ε IC50 range) and at CK1δ (read-out: CK1δ IC50 range) was 0.01 to 10 nM each time.

Take `NC(=O)c1c(-c2cccc(Cl)c2)nn2c1CN(C(=O)Nc1ccc(OC(F)(F)F)cc1)CC2` [Compound 162, 2-(3-Chlorophenyl)-N^5-(4-(trifluoromethoxy)phenyl)-6,7-dihydropyrazolo[1,5-a]pyrazine-3,5(4H)-dicarboxamide]: the IC50 on CK1ε (read-out: CK1ε IC50 range) and on CK1δ (read-out: CK1δ IC50 range) was 0.01 to 10 nM each time.

In the case of `N#Cc1ccc(NC(=O)N2CCn3nc(-c4cccc(Cl)c4)c(C(N)=O)c3C2)cc1` [Compound 166, 2-(3-Chlorophenyl)-N^5-(4-cyanophenyl)-6,7-dihydropyrazolo[1,5-a]pyrazine-3,5(4H)-dicarboxamide], the IC50 is 0.3 nM at CK1ε (read-out: CK1ε), 0.01 to 10 nM on CK1ε (read-out: CK1ε IC50 range), 0.3 nM at CK1δ (read-out: CK1δ) and 0.01 to 10 nM at CK1δ (read-out: CK1δ IC50 range).

As for `NC(=O)c1c(-c2cccc(Cl)c2)nn2c1CN(C(=O)Nc1ccc(C(F)(F)F)cc1)CC2` [Compound 168, 2-(3-Chlorophenyl)-N^5-(4-(trifluoromethyl)phenyl)-6,7-dihydropyrazolo[1,5-a]pyrazine-3,5(4H)-dicarboxamide], the IC50 on CK1ε (read-out: CK1ε IC50 range) and on CK1δ (read-out: CK1δ IC50 range) was 0.01 to 10 nM each time.

For `CC(C)(NC(=O)N1CCn2nc(-c3cccc(Cl)c3)c(C(N)=O)c2C1)C(F)F` [Compound 172, 2-(3-Chlorophenyl)-N^5-(1,1-difluoro-2-methylpropan-2-yl)-6,7-dihydropyrazolo[1,5-a] pyrazine-3,5(4H)-dicarboxamide], the IC50 on CK1ε (read-out: CK1ε IC50 range) and at CK1δ (read-out: CK1δ IC50 range) was 0.01 to 10 nM throughout.

On to `CC(C)(NC(=O)N1CCn2nc(-c3cccc(Cl)c3)c(C(N)=O)c2C1)c1ccc(C#N)cc1` [Compound 173, 2-(3-Chlorophenyl)-N^5-(2-(4-cyanophenyl)propan-2-yl)-6,7-dihydropyrazolo[1,5-a] pyrazine-3,5(4H)-dicarboxamide], for which the IC50 at CK1ε (read-out: CK1ε IC50 range) and on CK1δ (read-out: CK1δ IC50 range) was 0.01 to 10 nM each time.

Consider `NC(=O)c1c(-c2cccc(Cl)c2)nn2c1CN(C(=O)N[C@H]1C[C@H](F)C1)CC2` [Compound 175, 2-(3-Chlorophenyl)-N^5-((1r,3r)-3-fluorocyclobutyl)-6,7-dihydropyrazolo[1,5-a] pyrazine-3,5(4H)-dicarboxamide], for which the IC50 at CK1ε (read-out: CK1ε IC50 range) and on CK1δ (read-out: CK1δ IC50 range) was 0.01 to 10 nM each time.

Regarding `NC(=O)c1c(-c2cccc(Cl)c2)nn2c1CN(C(=O)N[C@H]1C[C@@H](F)C1)CC2` [Compound 176, 2-(3-Chlorophenyl)-N^5-((1s,3s)-3-fluorocyclobutyl)-6,7-dihydropyrazolo[1,5-a] pyrazine-3,5(4H)-dicarboxamide], the IC50 on CK1ε (read-out: CK1ε IC50 range) and at CK1δ (read-out: CK1δ IC50 range) was 0.01 to 10 nM in each case.

For the compound `CO[C@H]1C[C@@H](NC(=O)N2CCn3nc(-c4cccc(Cl)c4)c(C(N)=O)c3C2)C1` [Compound 177, 2-(3-Chlorophenyl)-N^5-((1s,3s)-3-methoxycyclobutyl)-6,7-dihydropyrazolo[1,5-a] pyrazine-3,5(4H)-dicarboxamide], the IC50 on CK1ε (read-out: CK1ε IC50 range) and on CK1δ (read-out: CK1δ IC50 range) was 0.01 to 10 nM throughout.

As to `CO[C@H]1C[C@H](NC(=O)N2CCn3nc(-c4cccc(Cl)c4)c(C(N)=O)c3C2)C1` [Compound 178, 2-(3-Chlorophenyl)-N^5-((1r,3r)-3-methoxycyclobutyl)-6,7-dihydropyrazolo [1,5-a]pyrazine-3,5(4H)-dicarboxamide], the IC50 at CK1ε (read-out: CK1ε IC50 range) and at CK1δ (read-out: CK1δ IC50 range) was 0.01 to 10 nM each time.

Turning to `NC(=O)c1c(-c2cccc(Cl)c2)nn2c1CN(C(=O)NCC1CC(F)(F)C1)CC2` [Compound 179, 2-(3-Chlorophenyl)-N^5-((3,3-difluorocyclobutyl)methyl)-6,7-dihydropyrazolo[1,5-a]pyrazine-3,5(4H)-dicarboxamide], the IC50 at CK1ε (read-out: CK1ε IC50 range) and on CK1δ (read-out: CK1δ IC50 range) was 0.01 to 10 nM each time.

On to `NC(=O)c1c(-c2cccc(Cl)c2)nn2c1CN(C(=O)NCC1CCC(F)(F)CC1)CC2` [Compound 180, 2-(3-Chlorophenyl)-N^5-((4,4-difluorocyclohexyl)methyl)-6,7-dihydropyrazolo[1,5-a]pyrazine-3,5(4H)-dicarboxamide], for which the IC50 on CK1ε (read-out: CK1ε IC50 range) and on CK1δ (read-out: CK1δ IC50 range) was 0.01 to 10 nM throughout.

As for `NC(=O)c1c(-c2cccc(Cl)c2)nn2c1CN(C(=O)NC1CC3(CC3)C1)CC2` [Compound 181, 2-(3-Chlorophenyl)-N^5-(spiro[2.3]hexan-5-yl)-6,7-dihydropyrazolo[1,5-a]pyrazine-3,5(4H)-dicarboxamide], the IC50 on CK1ε (read-out: CK1ε IC50 range) and on CK1δ (read-out: CK1δ IC50 range) was 0.01 to 10 nM each time.

Regarding `NC(=O)c1c(-c2cccc(Cl)c2)nn2c1CN(C(=O)NC1CC3(C1)CC(F)(F)C3)CC2` [Compound 182, 2-(3-Chlorophenyl)-N^5-(6,6-difluorospiro[3.3]heptan-2-yl)-6,7-dihydropyrazolo[1,5-a] pyrazine-3,5(4H)-dicarboxamide], the IC50 on CK1ε (read-out: CK1ε IC50 range) and at CK1δ (read-out: CK1δ IC50 range) was 0.01 to 10 nM each time.

As for `NC(=O)c1c(-c2cccc(Cl)c2)nn2c1CN(C(=O)N[C@@H]1C[C@@H]3[C@H](C1)C3(F)F)CC2` [Compound 183, 2-(3-Chlorophenyl)-N^5-((1R,3s,5S)-6,6-difluorobicyclo[3.1.0]hexan-3-yl)-6,7-dihydropyrazolo[1,5-a]pyrazine-3,5(4H)-dicarboxamide], the IC50 at CK1ε (read-out: CK1ε IC50 range) and on CK1δ (read-out: CK1δ IC50 range) was 0.01 to 10 nM in each case.

As for `NC(=O)c1c(-c2cccc(Cl)c2)nn2c1CN(C(=O)N[C@H]1C[C@@H]3[C@H](C1)C3(F)F)CC2` [Compound 184, 2-(3-Chlorophenyl)-N^5-((1R,3r,5S)-6,6-difluorobicyclo[3.1.0]hexan-3-yl)-6,7-dihydropyrazolo[1,5-a]pyrazine-3,5(4H)-dicarboxamide], the IC50 on CK1ε (read-out: CK1ε IC50 range) and on CK1δ (read-out: CK1δ IC50 range) was 0.01 to 10 nM in each case.

Take `CC(C)(NC(=O)N1CCn2nc(-c3ccc(F)c(Cl)c3)c(C(N)=O)c2C1)C(F)F` [Compound 185, 2-(3-Chloro-4-fluorophenyl)-N^5-(1,1-difluoro-2-methylpropan-2-yl)-6,7-dihydropyrazolo[1,5-a]pyrazine-3,5(4H)-dicarboxamide]: the IC50 on CK1ε (read-out: CK1ε IC50 range) and on CK1δ (read-out: CK1δ IC50 range) was 0.01 to 10 nM throughout.

As to `CC(C)(CC#N)NC(=O)N1CCn2nc(-c3ccc(F)c(Cl)c3)c(C(N)=O)c2C1` [Compound 186, 2-(3-Chloro-4-fluorophenyl)-N^5-(1-cyano-2-methylpropan-2-yl)-6,7-dihydropyrazolo [1,5-a]pyrazine-3,5(4H)-dicarboxamide], the IC50 on CK1ε (read-out: CK1ε IC50 range) and at CK1δ (read-out: CK1δ IC50 range) was 0.01 to 10 nM in each case.

For `CC(C)(NC(=O)N1CCn2nc(-c3ccc(F)c(Cl)c3)c(C(N)=O)c2C1)c1ccc(C#N)cc1` [Compound 187, 2-(3-Chloro-4-fluorophenyl)-N^5-(2-(4-cyanophenyl)propan-2-yl)-6,7-dihydropyrazolo [1,5-a]pyrazine-3,5(4H)-dicarboxamide], the IC50 on CK1ε (read-out: CK1ε IC50 range) and at CK1δ (read-out: CK1δ IC50 range) was 0.01 to 10 nM in each case.

Regarding `CC(F)(F)C(C)(C)NC(=O)N1CCn2nc(-c3ccc(F)c(Cl)c3)c(C(N)=O)c2C1` [Compound 188, 2-(3-Chloro-4-fluorophenyl)-N^5-(3,3-difluoro-2-methylbutan-2-yl)-6,7-dihydropyrazolo[1,5-a] pyrazine-3,5(4H)-dicarboxamide], the IC50 at CK1ε (read-out: CK1ε IC50 range) and at CK1δ (read-out: CK1δ IC50 range) was 0.01 to 10 nM each time.

Turning to `NC(=O)c1c(-c2ccc(F)c(Cl)c2)nn2c1CN(C(=O)N[C@H]1C[C@H](F)C1)CC2` [Compound 189, 2-(3-Chloro-4-fluorophenyl)-N^5-((1r,3r)-3-fluorocyclobutyl)-6,7-dihydropyrazolo[1,5-a] pyrazine-3,5(4H)-dicarboxamide], the IC50 on CK1ε (read-out: CK1ε IC50 range) and at CK1δ (read-out: CK1δ IC50 range) was 0.01 to 10 nM each time.

In the case of `NC(=O)c1c(-c2ccc(F)c(Cl)c2)nn2c1CN(C(=O)N[C@H]1C[C@@H](F)C1)CC2` [Compound 190, 2-(3-Chloro-4-fluorophenyl)-N^5-((1s,3s)-3-fluorocyclobutyl)-6,7-dihydropyrazolo[1,5-a] pyrazine-3,5(4H)-dicarboxamide], the IC50 at CK1ε (read-out: CK1ε IC50 range) and on CK1δ (read-out: CK1δ IC50 range) was 0.01 to 10 nM in each case.

With `NC(=O)c1c(-c2ccc(F)c(Cl)c2)nn2c1CN(C(=O)NCC1CC(F)(F)C1)CC2` [Compound 193, 2-(3-Chloro-4-fluorophenyl)-N^5-((3,3-difluorocyclobutyl)methyl)-6,7-dihydropyrazolo[1,5-a] pyrazine-3,5(4H)-dicarboxamide], the IC50 at CK1ε (read-out: CK1ε IC50 range) and at CK1δ (read-out: CK1δ IC50 range) was 0.01 to 10 nM each time.

`NC(=O)c1c(-c2ccc(F)c(Cl)c2)nn2c1CN(C(=O)NC1CC3(CC3)C1)CC2` [Compound 195, 2-(3-Chloro-4-fluorophenyl)-N^5-(spiro [2.3]hexan-5-yl)-6,7-dihydropyrazolo[1,5-a] pyrazine-3,5(4H)-dicarboxamide]: the IC50 at CK1ε (read-out: CK1ε IC50 range) and at CK1δ (read-out: CK1δ IC50 range) was 0.01 to 10 nM each time.

Regarding `NC(=O)c1c(-c2ccc(F)c(Cl)c2)nn2c1CN(C(=O)NC1CC3(C1)CC(F)(F)C3)CC2` [Compound 196, 2-(3-Chloro-4-fluorophenyl)-N^5-(6,6-difluorospiro[3.3]heptan-2-yl)-6,7-dihydropyrazolo[1,5-a] pyrazine-3,5(4H)-dicarboxamide], the IC50 on CK1ε (read-out: CK1ε IC50 range) and on CK1δ (read-out: CK1δ IC50 range) was 0.01 to 10 nM in each case.
